In PubChem BioAssay AID2060512 (Molecular Pharmacology Branch, DTP, NCI, 2025):

System: 186277-243-T-J2-PDC complex spheroid viability
Test: Anticancer human tumor 186277-243-T-J2-PDC patient-derived colon adenocarcinoma cell line growth inhibition [GQUAD]
Details: for IC50: curve of first compound; for viability, T/C: stronger effect = lower value
Method in brief: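 Viability of tumor cells grown as complex spheroids with endothelial and stromal cells, exposed to drug combinations. Top concentration at or near clinical Cmax (else 10 microM), diluted in half-log increments.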
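Also: spheroids exposed to drugs for 7 days.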
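For viability, T/C in this document: 100% = DMSO vehicle control viability.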

SMILES: COc1cc(C2c3cc4c(cc3C(OC3OC5COC(C)OC5C(O)C3O)C3COC(=O)C23)OCO4)cc(OC)c1O (configuration not stated) + Cc1[nH]c2ccc(F)cc2c1-c1nc2c3cccnc3c3ncccc3c2[nH]1
- IC50 (second compound 0.0316 µM): 3.72 µM
- IC50 (second compound 0.1 µM): 2.42 µM
- IC50 (second compound 0.316 µM): 3.48 µM
- IC50 (second compound 1 µM): 3.34 µM
- IC50 (second compound 3.16 µM): 2.58 µM
- IC50 (second compound 10 µM): 2.76 µM
- viability, T/C (second compound 0.0316 µM, first compound 0.0316 µM): 104%
- viability, T/C (second compound 0.0316 µM, first compound 0.1 µM): 101%
- viability, T/C (second compound 0.0316 µM, first compound 0.316 µM): 101%
- viability, T/C (second compound 0.0316 µM, first compound 1 µM): 62.2%
- viability, T/C (second compound 0.0316 µM, first compound 3.16 µM): 61.3%
- viability, T/C (second compound 0.0316 µM, first compound 10 µM): 25%
- viability, T/C (second compound 0.1 µM, first compound 0.0316 µM): 92.1%
- viability, T/C (second compound 0.1 µM, first compound 0.1 µM): 92.4%
- viability, T/C (second compound 0.1 µM, first compound 0.316 µM): 76.8%
- viability, T/C (second compound 0.1 µM, first compound 1 µM): 62%
- viability, T/C (second compound 0.1 µM, first compound 3.16 µM): 47.9%
- viability, T/C (second compound 0.1 µM, first compound 10 µM): 27.2%
- viability, T/C (second compound 0.316 µM, first compound 0.0316 µM): 94.6%
- viability, T/C (second compound 0.316 µM, first compound 0.1 µM): 90.2%
- viability, T/C (second compound 0.316 µM, first compound 0.316 µM): 83.4%
- viability, T/C (second compound 0.316 µM, first compound 1 µM): 69.3%
- viability, T/C (second compound 0.316 µM, first compound 3.16 µM): 52.9%
- viability, T/C (second compound 0.316 µM, first compound 10 µM): 26.2%
- viability, T/C (second compound 1 µM, first compound 0.0316 µM): 104%
- viability, T/C (second compound 1 µM, first compound 0.1 µM): 87.1%
- viability, T/C (second compound 1 µM, first compound 0.316 µM): 85.6%
- viability, T/C (second compound 1 µM, first compound 1 µM): 66.9%
- viability, T/C (second compound 1 µM, first compound 3.16 µM): 53.5%
- viability, T/C (second compound 1 µM, first compound 10 µM): 27.4%
- viability, T/C (second compound 3.16 µM, first compound 0.0316 µM): 96.6%
- viability, T/C (second compound 3.16 µM, first compound 0.1 µM): 101%
- viability, T/C (second compound 3.16 µM, first compound 0.316 µM): 110%
- viability, T/C (second compound 3.16 µM, first compound 1 µM): 69%
- viability, T/C (second compound 3.16 µM, first compound 3.16 µM): 49.8%
- viability, T/C (second compound 3.16 µM, first compound 10 µM): 25.5%
- viability, T/C (second compound 10 µM, first compound 0.0316 µM): 103%
- viability, T/C (second compound 10 µM, first compound 0.1 µM): 98%
- viability, T/C (second compound 10 µM, first compound 0.316 µM): 94.1%
- viability, T/C (second compound 10 µM, first compound 1 µM): 70.6%
- viability, T/C (second compound 10 µM, first compound 3.16 µM): 48.1%
- viability, T/C (second compound 10 µM, first compound 10 µM): 30.5%
